Source: paper PMC9571290, “Preliminary Structure–Activity Relationship Study of the MMV Pathogen Box Compound MMV675968 (2,4-Diaminoquinazoline) Unveils Novel Inhibitors of Trypanosoma brucei brucei” (Molecules, 2022)
Read-outs that look alike come from different tables or passages of the source.

Tests used:
[1] = in vitro; settings: African green monkey
Protocol: (§1) The resulting pellet was resuspended and counted in a Neubauer chamber in the presence of trypan blue to exclude nonviable cells colored in blue. Once the cell load was estimated, they were either used for the next passage in a new flask or processed for the cytotoxicity assay.
(§2) Briefly, Vero cells at a density of 10^4 cells per well were plated in 100 µL of complete DMEM and incubated overnight to allow cell attachment. Plates were then controlled under an inverted fluorescence microscope (Lumascope LS520) to ensure adherence, sterility and cell integrity. Thereafter, culture medium from each well was carefully emptied, and plates were filled with 90 µL of fresh complete medium followed by the addition of 10 µL of serial 5-fold dilutions of compound solutions. […] Fluorescence was then read using a Magelan Infinite M200 fluorescence multiwell plate reader (Tecan) with excitation and emission wavelengths of 530 and 590 nm, respectively. The percentage of cell viability was calculated from readouts, and the median cytotoxic concentration (CC50) for each compound was deduced from concentration–response curves using GraphPad Prism 8.0 software as described above. Selectivity indexes were then determined for each test substance as follows: SI = CC50(Vero cells)/IC50(T. brucei brucei).

[2] = system: bloodstream forms of Trypanosoma brucei brucei; assay: resazurin-based antitrypanosomal inhibition assay; assay type: cell-based; settings: for pIC50 T. b. b.: Table 2
Protocol: Parasites were axenically cultivated in sterile vented flasks containing complete Hirumi’s modified Iscove’s medium 9 (HMI-9) [500 mL IMDM (Iscove’s modified Dulbecco’s medium) (Gibco, Waltham, MA, USA) supplemented with 10% (v/v) heat-inactivated fetal bovine serum (HIFBS) (Sigma Aldrich), 10% (v/v) serum plus (Sigma Aldrich), HMI-9 supplement (1 mM hypoxanthine, 0.16 mM thymidine, 50 µM bathocuproine disulfonic acid, 1.5 mM cysteine, 1.25 Mm pyruvic acid, 0.2 mM 2-mercaptoethanol (Sigma Aldrich)), and 1% (v/v) penicillin–streptomycin (Sigma Aldrich) and incubated at 37 °C in a 5% CO2 atmosphere.
The in vitro inhibitory potency of the 400 MMVPB compounds against bloodstream forms of Trypanosoma brucei brucei was evaluated using the resazurin-based inhibition assay as previously described. Briefly, parasites at their mid-logarithmic growth phase were counted, and the cell density was adjusted with fresh complete HMI-9 medium to 2 × 10^5 trypanosomes per mL. Then, 90 µL of parasite suspension was then distributed into the wells of 96-well flat-bottomed plates containing 10 µL of compounds for a final test concentration of 10 µM. […] Each assay plate was set up in duplicate and repeated two times. The percent parasite inhibition was determined for each compound based on fluorescence readouts relative to the mean fluorescence of negative control wells.
y = 100/[1+ 10^(logIC50/99-x)H], where H is the hill coefficient or slope factor [60].

[3] = system: kinetoplastids (T. brucei brucei and T. brucei rhodesiense); design: method as in MMV Pathogen Box supporting information; settings: against kinetoplastids; ref MMV Pathogen Box supporting information; read-out: Reported IC50; cited from earlier work
[4] = system: Vero cells; assay: cytotoxicity against Vero cells (resazurin viability assay); settings: read-out: CC50 Vero; Table 2
Protocol: as §1, §2

[5] = Trypanosoma brucei, Table 4, analogs of MMV675968, solid material, read-out: IC50 ± SD T. b. b.
[6] = Trypanosoma brucei, Table 1, reference drugs included in MMVPB, read-out: IC50 ± SD T. b. b.
[7] = Trypanosoma brucei, Table 1, negative log of IC50 in molar, read-out: pIC50 T. b. b. (converted)
[8] = Table 2, MMVPB compounds with known anti-kinetoplastid activity, read-out: IC50 ± SD T. b. b.

IC50 [2, 5] [nM] | IC50 [2, 6] [nM] | IC50 [2, 7] [nM] | SMILES | CC50 at 48 h [1] [nM] | IC50 [3] [nM] | CC50 [4] [nM] | IC50 [2, 8] [nM] | pIC50 T. b. b. ([2]; negative log of IC50 in molar)
> 10000 |  |  | COc1ccc(NCc2cnc(N)nc2N)cc1 [Analog 17] | > 100000 |  |  |  | 
> 10000 |  |  | COc1cccc(CNCc2cnc(N)nc2N)c1 [Analog 18] | > 100000 |  |  |  | 
> 10000 |  |  | COc1cccc(CNC(=O)c2cnc(N)nc2N)c1 [Analog 19] | > 100000 |  |  |  | 
> 10000 |  |  | COc1ccc(NC(=O)c2cnc(N)nc2N)cc1 [Analog 20] | > 100000 |  |  |  | 
> 10000 |  |  | COc1ccccc1NC(=O)c1cnc(N)nc1N [Analog 21] | > 100000 |  |  |  | 
> 10000 |  |  | Nc1ncc(C(=O)Nc2cccnc2)c(N)n1 [Analog 22] | > 100000 |  |  |  | 
> 10000 |  |  | Cc1ccccc1NC(=O)c1cnc(N)nc1N [Analog 23] | > 100000 |  |  |  | 
> 10000 |  |  | COc1ccc(NC(=O)c2cnc(N)nc2N)cc1OC [Analog 24] | > 100000 |  |  |  | 
 | 1600 ± 8 | 1580 | OC(c1cc(C(F)(F)F)nc2c(C(F)(F)F)cccc12)C1CCCCN1 (stereo not shown) [MMV000016, Mefloquine, reference compound] | 11300 |  |  |  | 
 | 1500 ± 30 | 1580 | CCN(CC)CCCCCCNc1cc(OC)cc2c(C)ccnc12 [MMV000063, Sitamaquine, reference compound] | > 100000 |  |  |  | 
 | 200 ± 90 | 200 | CC1CS(=O)(=O)CCN1/N=C/c1ccc([N+](=O)[O-])o1 (stereo not shown) [MMV001499, Nifurtimox, reference compound] | > 100000 |  |  |  | 
 |  |  | CNC(=O)C1Cc2ccccc2N1C(=O)Cc1ccc(F)cc1 (stereo not shown) [MMV188296] |  | 490 | > 100000 | 1010 ± 250 | 5.99
 | 80 ± 10 | 81.3 | Cc1ccc(C(=O)Nc2ccc(S(=O)(=O)O)c3cc(S(=O)(=O)O)cc(S(=O)(=O)O)c23)cc1NC(=O)c1cccc(NC(=O)Nc2cccc(C(=O)Nc3cc(C(=O)Nc4ccc(S(=O)(=O)O)c5cc(S(=O)(=O)O)cc(S(=O)(=O)O)c45)ccc3C)c2)c1 [MMV637953, Suramine, reference compound] | > 100000 |  |  |  | 
 |  |  | O=C(Nc1ccc2c(c1)B(O)OC2)c1ccccc1C(F)(F)F [MMV652003] |  | 150 | > 100000 | 60 ± 40 | 7.22
 |  |  | Cc1nc(-c2ccccn2)nc(N2CCC(Cc3ccccc3)C2)c1Cl (stereo not shown) [MMV659004] |  | 6600 | > 100000 | 1900 ± 3 | 5.72
 |  |  | COc1ccc(C(=N)N)cc1-c1cn(-c2ccc(C(=N)N)cc2)nn1 [MMV675998] |  | 250 | > 100000 | 340 ± 30 | 6.47
 |  |  | CO[C@@H](C(=O)N1Cc2[nH]nc(NC(=O)c3ccc(N4CCN(C)CC4)cc3)c2C1)c1ccccc1 [MMV676600] |  | 1020 | > 100000 | 650 ± 7 | 6.18
 |  |  | Cc1ncc(-c2ccnc(Nc3ccc(S(C)(=O)=O)cc3)n2)n1C(C)C [MMV676604] |  | 260 | 8300 ± 1200 | 36 ± 1 | 7.44
 |  |  | c1ccc(Oc2ccc(-c3cc(N4CCNCC4)[nH]n3)cc2)cc1 [MMV687706] |  | 990 | 41000 ± 6500 | 1900 ± 6 | 5.72
 |  |  | CC1=Nc2ccc(Cl)cc2C(c2ccccc2)N1CCNC(=O)CN(C)C (stereo not shown) [MMV688410] |  | 3800 |  | 8500 ± 100 | 5.07
 | 300 ± 10 | 302 | O=C(Cn1ccnc1[N+](=O)[O-])NCc1ccccc1 [MMV688773, Benznidazole, reference compound] | > 100000 |  |  |  | 
 |  |  | CS(=O)(=O)c1ccccc1C(=O)N(Cc1ccccc1)c1ccccc1 [MMV688798] |  | 555 |  | 300 ± 25 | 6.52
 |  |  | Cc1ccc(S(=O)(=O)Nc2ccc(CN3CCN(C(=O)c4cccc(C#N)c4)CC3)cc2)cc1 [MMV689028] |  | 140 | > 100000 |  | 
 |  |  | Clc1ccc(CN2CCN(C3=NCCN3)CC2)cc1Cl [MMV689060] |  | 31600 |  | 2400 ± 60 | 5.61
